Experimental data taken from patent US6737383B1, “Herbicidal oxadiazolidines” (priority 1999, dated 2004).

Tests used:
[1] = tested on: cocklebur; assay: Test B pre/postemergence cocklebur; type: in vivo, Xanthium strumarium
Outline: (§1)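 Herbicidal effect was estimated by eye on a ten-point control scale after plants spent twelve to sixteen days in a greenhouse following soil or foliar treatment. Foliar sprays targeted plants at one to four leaves; all doses were formulated in a non-phytotoxic solvent with surfactant.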

[2] = tested on: corn; assay: Test B pre/postemergence corn; type: in vivo, Zea mays
Outline: as §1

[3] = tested on: crabgrass; assay: Test B pre/postemergence crabgrass; type: in vivo, Digitaria sanguinalis
Outline: as §1

[4] = tested on: giant foxtail; assay: Test B pre/postemergence giant foxtail; type: in vivo, Setaria faberii
Outline: as §1

[5] = tested on: morningglory; assay: Test B pre/postemergence morningglory; type: in vivo, Ipomoea hederacea
Outline: as §1

[6] = tested on: pigweed; assay: Test B pre/postemergence pigweed; type: in vivo, Amaranthus retroflexus
Outline: as §1

[7] = tested on: rape; assay: Test B pre/postemergence rape; type: in vivo, Brassica napus
Outline: as §1

[8] = tested on: soybean; assay: Test B pre/postemergence soybean; type: in vivo, Glycine max
Outline: as §1

[9] = tested on: sugar beet; assay: Test B pre/postemergence sugar beet; type: in vivo, Beta vulgaris
Outline: as §1

[10] = tested on: velvetleaf; assay: Test B pre/postemergence velvetleaf; type: in vivo, Abutilon theophrasti
Outline: as §1

[11] = tested on: wheat; assay: Test B pre/postemergence wheat; type: in vivo, Triticum aestivum
Outline: as §1

[12] = tested on: wild oat; assay: Test B pre/postemergence wild oat; type: in vivo, Avena fatua
Outline: as §1

[13] = tested on: purple nutsedge; assay: Test B pre/postemergence purple nutsedge; type: in vivo, Cyperus rotundus
Outline: as §1

[14] = tested on: rice; assay: Test B flood test rice; type: in vivo, Oryza sativa
Outline: (§2)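 Each value is a visual injury score relative to controls, with 10 meaning complete control and 0 no effect. Evaluation took place twelve to sixteen days after the 2-leaf-stage plants were treated and kept in the greenhouse.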

[15] = tested on: smallflower flatsedge; assay: Test B flood test smallflower flatsedge; type: in vivo, Cyperus difformis
Outline: as §2

[16] = tested on: duck salad; assay: Test B flood test duck salad; type: in vivo, Heteranthera limosa
Outline: as §2

[17] = Postemergence, Rate 125 g/ha, scale of 0 to 10 where 0 is no effect and 10 is complete control
[18] = Postemergence, Rate 250 g/ha, scale of 0 to 10, 0 is no effect, 10 is complete control
[19] = Postemergence, Rate 500 g/ha, scale of 0 to 10 where 0 is no effect and 10 is complete control
[20] = Postemergence, Rate 1000 g/ha, scale 0 to 10 (0 no effect, 10 complete control)
[21] = Preemergence, Rate 125 g/ha, scale of 0 to 10 where 0 is no effect and 10 is complete control
[22] = Preemergence, Rate 500 g/ha, scale of 0 to 10 where 0 is no effect and 10 is complete control
[23] = Rate 1000 g/ha, Preemergence, scale 0 to 10 (0 no effect, 10 complete control)
[24] = Pre-emergence, Rate 1000 g/ha, scale 0 to 10 (0 no effect, 10 complete control)
[25] = Rate 125 g/ha, under heading Pre-emergence, flood test species, visual evaluation after twelve to sixteen days
[26] = Rate 250 g/ha, Pre-emergence (flood test species), scale 0 to 10, 0 is no effect, 10 is complete control
[27] = Rate 500 g/ha, Pre-emergence section of Table B, 0 to 10 scale (0 no effect, 10 complete control)

Compound: C=CCn1c(=O)on(C(=O)N(c2c(C)cccc2C)C(C)COC)c1=O (centres unmarked) [Compound 600]
- Plant response rating, Cocklebur [1, 17]: 0
- Cocklebur plant response rating [1, 18]: 0
- Plant response rating, Cocklebur [1, 19]: 0
- Cocklebur plant response rating [1, 20]: 0
- Cocklebur plant response rating [1, 21]: 0
- Cocklebur plant response rating (0 to 10 scale) ([1]; Preemergence, Rate 250 g/ha): 0
- Plant response rating, Cocklebur [1, 22]: 0
- Plant response rating, Cocklebur [1, 23]: 0
- Plant response rating, Corn [2, 17]: 0
- Corn plant response rating [2, 18]: 0
- Plant response rating, Corn [2, 19]: 0
- Corn plant response rating [2, 20]: 0
- Corn plant response rating [2, 21]: 0
- Corn plant response rating (0 to 10 scale) ([2]; Preemergence, Rate 250 g/ha): 0
- Plant response rating, Corn [2, 22]: 0
- Plant response rating, Corn [2, 23]: 0
- Plant response rating, Crabgrass [3, 17]: 1
- Plant response rating, Crabgrass [3, 19]: 3
- Crabgrass plant response rating [3, 20]: 3
- Crabgrass plant response rating [3, 21]: 0
- Plant response rating, Crabgrass [3, 22]: 0
- Plant response rating, Crabgrass [3, 23]: 0
- Plant response rating, Giant foxtail [4, 17]: 0
- Giant foxtail plant response rating [4, 18]: 0
- Plant response rating, Giant foxtail [4, 19]: 3
- Giant foxtail plant response rating [4, 20]: 3
- Giant foxtail plant response rating [4, 21]: 0
- Plant response rating, Giant foxtail [4, 22]: 0
- Plant response rating, Giant foxtail [4, 23]: 0
- Plant response rating, Morningglory [5, 17]: 0
- Morningglory plant response rating [5, 18]: 0
- Plant response rating, Morningglory [5, 19]: 0
- Morningglory plant response rating [5, 20]: 0
- Morningglory plant response rating [5, 21]: 0
- Plant response rating, Morningglory [5, 22]: 0
- Plant response rating, Morningglory [5, 23]: 0
- Plant response rating, Redroot pigweed [6, 17]: 0
- Redroot pigweed plant response rating [6, 18]: 0
- Plant response rating, Redroot pigweed [6, 19]: 0
- Redroot pigweed plant response rating [6, 20]: 0
- Redroot pigweed plant response rating [6, 21]: 0
- Plant response rating, Redroot pigweed [6, 22]: 0
- Plant response rating, Redroot pigweed [6, 23]: 0
- Plant response rating, Rape [7, 17]: 0
- Rape plant response rating [7, 18]: 0
- Plant response rating, Rape [7, 19]: 0
- Rape plant response rating [7, 20]: 0
- Rape plant response rating [7, 21]: 0
- Plant response rating, Rape [7, 22]: 0
- Plant response rating, Rape [7, 23]: 0
- Plant response rating, Soybean [8, 17]: 2
- Soybean plant response rating [8, 18]: 3
- Plant response rating, Soybean [8, 19]: 4
- Soybean plant response rating [8, 20]: 4
- Soybean plant response rating [8, 21]: 0
- Plant response rating, Soybean [8, 22]: 0
- Plant response rating, Soybean [8, 23]: 3
- Plant response rating, Sugarbeets [9, 17]: 0
- Sugarbeets plant response rating [9, 18]: 0
- Plant response rating, Sugarbeets [9, 19]: 0
- Sugarbeets plant response rating [9, 20]: 0
- Sugarbeets plant response rating [9, 21]: 0
- Plant response rating, Sugarbeets [9, 22]: 0
- Plant response rating, Sugarbeets [9, 23]: 0
- Plant response rating, Velvetleaf [10, 17]: 0
- Velvetleaf plant response rating [10, 18]: 0
- Plant response rating, Velvetleaf [10, 19]: 0
- Velvetleaf plant response rating [10, 20]: 0
- Velvetleaf plant response rating [10, 21]: 0
- Plant response rating, Velvetleaf [10, 22]: 0
- Plant response rating, Velvetleaf [10, 23]: 0
- Plant response rating, Wheat [11, 17]: 0
- Wheat plant response rating [11, 18]: 0
- Plant response rating, Wheat [11, 19]: 0
- Wheat plant response rating [11, 20]: 0
- Wheat plant response rating [11, 21]: 0
- Plant response rating, Wheat [11, 22]: 0
- Plant response rating, Wheat [11, 23]: 0
- Plant response rating, Wild oats [12, 17]: 0
- Wild oats plant response rating [12, 18]: 0
- Plant response rating, Wild oats [12, 19]: 0
- Wild oats plant response rating [12, 20]: 0
- Wild oats plant response rating [12, 21]: 0
- Plant response rating, Wild oats [12, 22]: 0
- Plant response rating, Wild oats [12, 23]: 0
- Plant response rating, Nutsedge [13, 17]: 0
- Nutsedge plant response rating [13, 18]: 0
- Plant response rating, Nutsedge [13, 19]: 0
- Nutsedge plant response rating [13, 20]: 0
- Nutsedge plant response rating [13, 21]: 0
- Plant response rating, Nutsedge [13, 22]: 0
- Plant response rating, Nutsedge [13, 23]: 0
- Rice plant response rating [14, 24]: 0
- Rice plant response rating (0 to 10 scale, 0 is no effect, 10 is complete control) [14, 25]: 0
- Rice plant response rating [14, 26]: 0
- Rice plant response rating [14, 27]: 0
- S. Flatsedge plant response rating [15, 24]: 0
- S. Flatsedge plant response rating (0 to 10 scale, 0 is no effect, 10 is complete control) [15, 25]: 0
- S. Flatsedge plant response rating [15, 26]: 0
- S. Flatsedge plant response rating [15, 27]: 0
- Ducksalad plant response rating [16, 24]: 0
- Ducksalad plant response rating (0 to 10 scale, 0 is no effect, 10 is complete control) [16, 25]: 0
- Ducksalad plant response rating [16, 26]: 0
- Ducksalad plant response rating [16, 27]: 0
